Source: the supplement of paper PMC8967900

Experiments:
Assay in all cases: selective drug sensitivity score (sDSS, relative to normal bone marrow) (sDSS (score)); higher = more potent and effective on the cell line relative to normal bone marrow cells
Settings in all cases: 72 h
[1] = test system: JURKAT
[2] = test system: NALM-6
[3] = test system: P30-OHKUBO
[4] = test system: COG-LL-317
[5] = test system: MHH-CALL-4
[6] = test system: HPB-ALL
[7] = test system: KASUMI-10
[8] = test system: MOLT-4
[9] = test system: MHH-CALL-3
[10] = test system: SUP-B15
[11] = test system: COG-LL-332h
[12] = test system: KASUMI-2
[13] = test system: MOLT-14
[14] = test system: DND-41
[15] = test system: 697
[16] = test system: HAL-01
[17] = test system: 380
[18] = test system: ALL-PO
[19] = test system: MN-60
[20] = test system: TANOUE
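Note: ALL cell lines in 384-well plates, five doses spanning 10,000-fold, each plate scaled between vehicle and 100 µmol/L benzalkonium chloride controls, sDSS an adapted area-under-curve metric.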

Structure (SMILES)	selective drug sensitivity score [1]	selective drug sensitivity score [2]	selective drug sensitivity score [3]	selective drug sensitivity score [4]	selective drug sensitivity score [5]	selective drug sensitivity score [6]	selective drug sensitivity score [7]	selective drug sensitivity score [8]	selective drug sensitivity score [9]	selective drug sensitivity score [10]	selective drug sensitivity score [11]	selective drug sensitivity score [12]	selective drug sensitivity score [13]	selective drug sensitivity score [14]	selective drug sensitivity score [15]	selective drug sensitivity score [16]	selective drug sensitivity score [17]	selective drug sensitivity score [18]	selective drug sensitivity score [19]	selective drug sensitivity score [20]
OC[C@H]1O[C@@H](n2cnc3c2N=CNC[C@H]3O)C[C@@H]1O [Pentostatin] (top concentration 10000 nM)	-0.44	-0.44	-0.44	-0.44	-0.44	-0.44	-0.44	-0.44	-0.44	0.66	-0.44	-0.44	-0.24	-0.44	-0.44	0.36	-0.44	-0.44	-0.44	0.36
COc1cc(OC2CCN(C)CC2)ccc1Nc1ncc2c(n1)n(C1CCCC1)c(=O)n2C [AZ3146] (top concentration 10000 nM)	0.24	3.04	-0.06	0.74	0.64	3.14	3.64	1.84	-4.16	1.34	1.34	-4.16	2.04	0.24	1.04	2.24	-2.86	3.44	-0.16	-4.16
COc1cc2nccc(Oc3ccc(NC(=O)C4(C(=O)Nc5ccc(F)cc5)CC4)cc3)c2cc1OC [Cabozantinib] (top concentration 1000 nM)	-3.62	-2.82	-3.62	-3.62	3.78	-3.02	14.1	-0.92	-3.62	13.5	-0.12	-3.62	1.28	-3.62	-1.42	3.88	-3.62	10.4	-3.62	-3.62
COc1ncc(-c2ccc3nccc(-c4ccnnc4)c3c2)cc1NS(=O)(=O)c1ccc(F)cc1F [Omipalisib] (top concentration 1000 nM)	4.2	17.2	18.6	4	13.1	3.8	1.6	14	11.4	7.3	3.2	12.9	-2.2	-0.8	11.9	20.1	22.2	21.9	8.9	-4
Cn1cc(C2=C(c3cn(C4CCN(Cc5ccccn5)CC4)c4ccccc34)C(=O)NC2=O)c2ccccc21 [Enzastaurin] (top concentration 10000 nM)	4.26	5.26	3.46	7.26	-0.04	-0.24	4.56	6.26	3.86	4.86	6.16	2.06	6.06	4.56	5.76	-0.34	3.96	5.96	5.16	2.46
COc1cc2nccc(Oc3ccc(NC(=O)Nc4cc(C)on4)c(Cl)c3)c2cc1OC [Tivozanib] (top concentration 10000 nM)	0.96	2.36	4.56	0.86	-2.44	-0.44	2.96	3.46	-3.64	21.7	12.2	4.96	4.46	0.36	5.16	-0.74	-3.64	1.76	0.66	-3.64
CC[C@]1(O)C[C@H]2CN(CCc3c([nH]c4ccccc34)[C@@](C(=O)OC)(c3cc4c(cc3OC)N(C)[C@H]3[C@@](O)(C(=O)OC)[C@H](OC(C)=O)[C@]5(CC)C=CCN6CC[C@]43[C@@H]65)C2)C1 [Vinblastine] (top concentration 1000 nM)	0.5	6.3	9.8	-0.2	-5.6	19.7	-1	-3.5	-0.1	12.9	-4.2	6.7	-2.5	-0.7	12.5	-5.1	7	7.2	-2.4	-9
CN1CCN(CCOc2cc(OC3CCOCC3)c3c(Nc4c(Cl)ccc5c4OCO5)ncnc3c2)CC1 [Saracatinib] (top concentration 10000 nM)	-0.62	-1.22	5.58	1.78	-2.02	-1.02	1.48	1.58	0.08	17	7.38	1.78	7.98	2.18	4.28	-1.32	-2.02	-0.02	3.38	-2.02
CC1=C(/C=C/C(C)=C/C=C/C(C)=C/C(=O)O)C(C)(C)CCC1 [Tretinoin] (top concentration 10000 nM)	-2.4	-2.4	-2.4	-1.8	-2.4	-1.7	-1.8	-2.4	-1.2	-2.4	-2.4	-2.4	-2.4	-2.4	-1.1	1.2	1.7	-2.3	-2.4	-2.4
